# According to patent US20070185184A1, “Carbazole derivatives” (Serenex, Inc., priority 2005, published 2007):
# How the values were obtained:
# PC-3 cell proliferation = test: Cell proliferation assay (Cyquant DNA assay); assay type: cell-based; conditions: Homo sapiens; PC-3 cells, 2-5 days incubation, vs DMSO (100%) and 10 μM Actinomycin D (0%); read-out: inhibitory activities against PC-3 cell proliferation (IC50 range)
# Protocol: A panel of cancer cell lines is obtained from the DCTP Tumor Repository, National Cancer Institute (Frederick, Md.) or ATCC (Rockville, Md.). Cell cultures are maintained in Hyclone RPMI 1640 medium (Logan, Utah) supplemented with 10% fetal bovine serum and 20 mM HEPES buffer, final pH 7.2, at 37° C. with a 5% CO2 atmosphere. Cultures are maintained at sub-confluent densities.
# For proliferation assays, cells are seeded with the appropriate medium into 96 well plates at 1,000-2,500 cells per well, depending on the cell line, and are incubated overnight. The following day, test compound, DMSO solution (negative control), or Actinomycin D (positive control) is added to the appropriate wells as 10× concentrated stocks prepared in phosphate buffered saline. The cell plates where then incubated for an additional 2-5 days, depending on the cell line, to allow proliferation to occur. To measure cell density, growth medium is removed from the adherent cell lines, and the plates stored at −80° C. Using these assay plates, relative amounts of DNA in each well is determined using the Cyquant DNA assay kit from […] (Eugene, Oreg.) following the manufacturer's directions. Results for each compound treatment are compared to DMSO vehicle control (100%) and 10 μM Actinomycin D treated cells (0%).
# [1] = test system: cell cycle progression in M-phase; test: Analysis of cell cycle status: M-phase block (phospho-Histone 3 serine 10, ArrayScan); assay type: cell-based; conditions: 5 hours incubation; vs 500 nM vinblastine (100% M-phase block) and DMSO (0%); read-out: M-phase block activities (IC50 range)
# Protocol: Cells are seeded onto 96-well Packard View plates and incubated overnight. Test compounds are added to individual wells the following day at 10× concentrations and the plates returned to the incubator.
# For identification of compounds that blocked cell cycle progression in M-phase, cells are incubated with compounds for 5 hours. After incubation, the cell growth media is removed and the cell monolayers are fixed with 3.7% formaldehyde, followed by treatment with 0.1% Triton X-100, and probed with a monoclonal phospho-specific Histone 3 serine 10 antibody. Bound primary antibody is detected with a FITC or TRITC conjugated secondary antibody. The cellular DNA is stained using Hoechst dye. Fixed cells are visualized using an ArrayScan 4.5 HCS plate reader. Cells positive for antibody binding are identified and quantified using the Target Activation Algorithm. IC50 Data from test compounds is generated by comparing test compound activity to the percentage of cells in M-phase detected in 500 nM vinblastine treated cells (100% M-phase block), and the percentage of M-phase cells detected in the DMSO control treated cells (0% M-phase block).
SMILES,IC50 (PC-3 cell proliferation) [nM],IC50 [1] [nM]
"C/C(=N\O)c1cn(-c2ccc(C(N)=O)cc2Cl)c2ccccc12 [Compound 7, 4-(3-(1-hydroxyimino-ethyl)-indol-1-yl)-3-chloro-benzamide]",< 500,
"COCCNc1ccc(-n2c3c(c4ccccc42)C(=O)CCC3)c(C(F)(F)F)c1 [Compound 10, 9-[4-(2-methoxy-ethylamino)-2-trifluoromethyl-phenyl]-1,2,3,9-tetrahydro-carbazol-4-one]",500 to 5000,
"CC(=O)c1cn(-c2ccc(NC(N)=O)cc2Cl)c2ccc(Cl)cc12 [Compound 17, [4-(3-Acetyl-5-chloro-indol-1-yl)-3-chloro-phenyl]-urea]",,500 to 5000
"CC(=O)c1cn(-c2ccc(N)cc2Cl)c2cc(Cl)ccc12 [Compound 18, 1-[1-(4-Amino-2-chloro-phenyl)-6-chloro-1H-indol-3-yl]-ethanone]",,500 to 5000
"C=CCNc1cc(-n2c3c(c4ccccc42)C(=O)CCC3)ccc1C(N)=O [Compound 20, 2-Allylamino-4-(4-oxo-1,2,3,4-tetrahydro-carbazol-9-yl)-benzamide]",500 to 5000,
"NC(=O)c1ccc(-n2c3c(c4ccccc42)C(=O)NCC3)c(Cl)c1 [Compound 22, 3-Chloro-4-(1-oxo-1,2,3,4-tetrahydro-pyrido[4,3-b]indol-5-yl)-benzamide]",500 to 5000,
"NC(=O)c1ccc(-n2c3c(c4ccccc42)C(=O)CCC3)c(C(F)(F)F)c1 [Compound 29, 4-(4-Oxo-1,2,3,4-tetrahydro-carbazol-9-yl)-3-trifluoromethyl-benzamide]",,< 500
"CC(=O)c1cn(-c2ccc(N)cc2Br)c2ccccc12 [Compound 37, 1-[1-(4-Amino-2-bromo-phenyl)-1H-indol-3-yl]-ethanone]",,5000 to 50000
"CC(=O)c1cn(-c2ccc(C(N)=O)cc2Cl)c2cc(Cl)ccc12 [Compound 44, 4-(3-Acetyl-6-chloro-indol-1-yl)-3-chloro-benzamide]",,< 500

# Now from value to compound:
IC50 (PC-3 cell proliferation) [nM],IC50 [1] [nM],SMILES
< 500,,"NC(=O)c1ccc(-n2c3c(c4ccccc42)C(=O)CCC3)c(Cl)c1 [Compound 2, 3-Chloro-4-(4-oxo-1,2,3,4-tetrahydro-carbazol-9-yl)benzamide]"
500 to 5000,,"NC(=O)c1ccc(-n2c3c(c4ccccc42)/C(=N/O)CCC3)c(Br)c1 [Compound 4, 3-Bromo-4-(4-hydroxyimino-1,2,3,4-tetrahydro-carbazol-9-yl)benzamide]"
< 500,,"NC(=S)c1ccc(-n2c3c(c4ccccc42)C(=O)CCC3)c(Br)c1 [Compound 5, 3-Bromo-4-(4-oxo-1,2,3,4-tetrahydro-carbazol-9-yl)thiobenzamide]"
< 500,,"CC(=O)c1cn(-c2ccc(C(N)=O)cc2Cl)c2ccccc12 [Compound 6, 4-(3-Acetyl-indol-1-yl)-3-chloro-benzamide]"
< 500,,"NC(=O)Nc1ccc(-n2c3c(c4ccccc42)C(=O)CCC3)c(Cl)c1 [Compound 13, 1-(3-chloro-4-(4-oxo-3,4-dihydro-1H-carbazol-9(2H)-yl)phenyl)urea]"
5000 to 50000,,"NC(=O)c1ccc(C(F)(F)F)c(-n2c3c(c4ccccc42)C(=O)CCC3)c1 [Compound 14, 3-(4-Oxo-1,2,3,4-tetrahydro-carbazol-9-yl)-4-trifluoromethyl-benzamide]"
,500 to 5000,"COCCNc1cc(-n2cc(C(C)=O)c3ccccc32)ccc1C(N)=O [Compound 35, 4-(3-Acetyl-indol-1-yl)-2-(2-methoxy-ethylamino)-benzamide]"
,500 to 5000,"C=CCNc1ccc(-n2c3c(c4ccccc42)C(=O)CCC3)c(C(F)(F)F)c1 [Compound 38, 9-(4-Allylamino-2-trifluoromethyl-phenyl)-1,2,3,9-tetrahydro-carbazol-4-one]"
,< 500,"CC(=O)NC(=O)Nc1ccc(-n2c3c(c4ccccc42)C(=O)CCC3)c(Cl)c1 [Compound 40, 1-Acetyl-3-[3-chloro-4-(4-oxo-1,2,3,4-tetrahydro-carbazol-9-yl)-phenyl]-urea]"
,< 500,"NC(=O)Nc1ccc(-n2c3c(c4cc(Cl)ccc42)C(=O)CCC3)c(Cl)c1 [Compound 41, [3-Chloro-4-(6-chloro-4-oxo-1,2,3,4-tetrahydro-carbazol-9-yl)-phenyl]-urea]"
,< 500,"COc1cc(-n2cc(C(C)=O)c3ccccc32)ccc1C(N)=O [Compound 43, 4-(3-Acetyl-indol-1-yl)-2-methoxy-benzamide]"
